What was measured:
[1] = target: T1, GAT-1 (Mus musculus, UniProt P31648); test: 3H GABA uptake, cortical astrocytes cultured from wildtype pups; format: cell-based; details: wt astrocytes (pooled from two mouse lines); PBA 2 mM, 24 hr; SNAP5114 30 μM
T1 construct: endogenous in cells; host or cells: primary cortical astrocytes from wild-type littermate pups (C57BL/6J background), passage 2
Experimental: Mouse cortical astrocytes or neurons were cultured from postnatal pus at day 0-3 days old for astrocytes and day 0 for neurons from the SLC6A1^+/A288V or SLC6A1^+/S295L mouse line. FIGS. 7A-B show astrocytes under passage 2 were grown in […] dishes and passaged into 35-mm^2 dishes before GABA uptake assay.
FIGS. 7C-D show neurons directly cultured in the 35-mm^2 dishes and GABA uptake was evaluated between day 15-17 days after culture. CI-966 (50 μM) and NNC711 (35 μM) was applied 30 min before preincubation and removed during preincubation. GAT-3 inhibitor SNAP5114 (30 μM) was applied during GABA uptake to make sure only GAT-1 activity was measured. The wildtype astrocytes (FIGS. 7A-B) or cortical neurons (FIGS. 7C-D) of either SLC6A1^+/A288V or SLC6A1^+/S295L were taken as 1. The cultures derived from each mutant mouse was compared to the culture from its own wildtype littermates. […] The wildtype data were pooled from two mouse lines. […] The graph represents the relative GABA uptake level normalized to cells of its own genotype treated with DMSO. CI-966 (50 μM) or NNC-711 (35 μM) was applied 30 min before preincubation and removed during preincubation. Two-way analysis of variance followed by Bonferroni multiple comparison test was used. Values were expressed as mean±S.E.M. In FIG. 7A and FIG. 7C, ***p<0.001 vs. wt; § § § P<0.001 S295L vs. A288V. […]

[2] = tested on: neural progenitor cells; test: GABA uptake in neural progenitor cells; format: cell-based; details: NPCs; data not shown
Experimental: NPCs were differentiated from iPSCs at passage 22-24 with differentiation of neural progenitor cells (NPCs) was induced by STEMdiff SMADi Neural induction kit from […]. iPSCs were seeded in a Geltrex coated dish at a density of ˜2×10^6 cells/per one 35 mm^2 dish or 6 well plate. The medium was refreshed daily, and the cells were passaged at day 5-7. NPCs at Passage 1 which was at least 10-12 days after neural induction were used for this study.
Briefly, cells were cultured in […] dishes for 3 days before the GABA uptake experiment in DMEM with 10% fetal bovine serum and 1% penicillin/streptomycin. The cells were then transfected with equal amounts of the wildtype or the mutant GAT-1 cDNAs (1 μg) for each condition at 24 hrs or 48 hrs after plating. GABA uptake assay was carried out 48 hrs after transfection. The cells were incubated with preincubation solution for 15 min and then incubated with preincubation solution containing 1 μci/mL 3H GABA and 10 μM unlabeled GABA for 30 min at room temperature. After washing, the cells were lysed with 0.25 N NaOH for 1 hr. Glacial acetic acid was added, and lysates were then determined on a liquid scintillator with QuantaSmart. The flux of GABA (pmol/μg/min) was averaged with at least triplets for each condition at each transfection. The average counting was taken as n=1. […]

[3] = cited from earlier work

For `O=C(O)CCCc1ccccc1` [PBA, 4-phenylbutyric acid], the “GABA uptake activity normalized to its own DMSO condition” value [1] is given as 1.22±0.058, the “GABA uptake in neural progenitor cells after PBA treatment” value [2] is given as “increase” and the oral bioavailability [3] is given as “orally bioavailable”.

From patent US20260144769A1, “4-PHENYLBUTYRATE RESTORED GABA UPTAKE AND REDUCED SEIZURES IN SLC6A1 VARIANT-MEDIATED DISORDERS” (Vanderbilt University, priority 2022, published 2026)
